The Kinase Knowledgebase extract (Sharma et al. 2016)

Molecular target: PIK3CA (human) (UniProt P42336)
Experiment: Assessment of PIK3CA Kinase Activity

Sequence of PIK3CA (human) (P42336 whole entry, looked up): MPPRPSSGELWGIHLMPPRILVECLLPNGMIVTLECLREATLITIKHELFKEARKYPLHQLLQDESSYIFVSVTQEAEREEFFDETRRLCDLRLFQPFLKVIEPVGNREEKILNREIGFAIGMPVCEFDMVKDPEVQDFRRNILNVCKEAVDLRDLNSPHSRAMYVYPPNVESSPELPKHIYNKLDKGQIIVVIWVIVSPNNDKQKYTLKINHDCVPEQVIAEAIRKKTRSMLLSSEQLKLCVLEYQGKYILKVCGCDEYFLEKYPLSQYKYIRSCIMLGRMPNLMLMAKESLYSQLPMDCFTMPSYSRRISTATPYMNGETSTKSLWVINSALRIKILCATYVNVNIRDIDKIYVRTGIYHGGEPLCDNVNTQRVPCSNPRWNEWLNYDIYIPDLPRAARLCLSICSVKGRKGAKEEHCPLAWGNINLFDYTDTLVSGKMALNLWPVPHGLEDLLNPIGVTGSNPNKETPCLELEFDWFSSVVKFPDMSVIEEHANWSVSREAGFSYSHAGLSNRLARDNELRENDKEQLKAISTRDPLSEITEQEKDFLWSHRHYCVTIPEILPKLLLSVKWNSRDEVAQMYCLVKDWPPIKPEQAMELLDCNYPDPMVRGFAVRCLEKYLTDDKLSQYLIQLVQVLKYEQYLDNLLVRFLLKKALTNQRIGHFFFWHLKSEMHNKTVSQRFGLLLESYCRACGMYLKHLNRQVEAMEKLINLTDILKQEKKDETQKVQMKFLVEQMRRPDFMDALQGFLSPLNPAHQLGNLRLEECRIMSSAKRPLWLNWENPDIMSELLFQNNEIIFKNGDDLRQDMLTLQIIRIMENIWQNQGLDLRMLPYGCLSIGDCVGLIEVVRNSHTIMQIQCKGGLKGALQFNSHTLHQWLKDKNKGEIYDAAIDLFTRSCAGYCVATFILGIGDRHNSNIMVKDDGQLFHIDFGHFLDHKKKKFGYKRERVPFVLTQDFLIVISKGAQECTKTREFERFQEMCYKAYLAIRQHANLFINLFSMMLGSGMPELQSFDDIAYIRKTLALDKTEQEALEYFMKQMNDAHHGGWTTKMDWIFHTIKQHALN

IC50, < 1 µM:
CC(C)(O)Cn1cc(-c2ccc3c(c2)OCCc2sc(N4C(=O)NCC4(C)C)nc2-3)cn1, CC(C)NC(=O)CN1CC(c2ccc3c(c2)OCCc2sc(-c4ncnn4C(C)C)nc2-3)C1, FC(F)(F)Cn1ncnc1-c1nc2c(s1)CCOc1ccc(-c3cnn(CCN4CCOCC4)c3)cc1-2, Cc1nc(-c2nc3c(s2)CCOc2cc(-c4ccccc4S(N)(=O)=O)ccc2-3)n(C(C)C)n1, COc1cc(C)c(-c2ccc3c(n2)-c2sc(-c4ncnn4-c4ccc(F)cc4F)cc2CCO3)cn1, CC(C)n1nc(N)nc1-c1nc2c(s1)CCOc1ccc(F)cc1-2, CN(C)C(=O)N1CCN(C(=O)c2nc3c(s2)CCOc2cc(-c4cn[nH]c4)ccc2-3)CC1, CC(C)(C(=O)O)n1cc(-c2ccc3c(c2)OCCc2sc(-c4ncnn4CC(F)(F)F)nc2-3)cn1, Cc1cnc(F)c(-c2ccc3c(c2)-c2nc(-c4ncnn4C(C)C)sc2CCO3)c1, Fc1ccc(-n2ncnc2-c2cc3c(s2)-c2nc(-c4ccc(N5CCOCC5)nc4)ccc2OCC3)c(F)c1, CC(C)n1ncnc1-c1nc2c(s1)CCOc1ccc(-c3ccc(N4CCCC4)nc3)cc1-2, CC(C)n1ncnc1-c1nc2c(s1)CCOc1ccc(-c3ccc(=O)n(C)c3)cc1-2, Oc1ccc(-c2ccc3c(n2)-c2sc(-c4ncnn4-c4ccc(F)cc4F)cc2CCO3)cn1, CC(=O)N(C)[C@@H]1CCN(C(=O)c2nc3c(s2)CCOc2cc(-c4cn[nH]c4)ccc2-3)C1, CCNC(=O)NCc1ccc2c(c1)OCCc1sc(-c3nc(C)nn3C(C)C)nc1-2, CCN(CC)[C@@H]1CCN(C(=O)c2nc3c(s2)CCOc2cc(-c4cn[nH]c4)ccc2-3)C1, CC(C)N(CCO)C(=O)c1nc2c(s1)CCOc1cc(-c3ccc(N4CCOCC4)nc3)ccc1-2, NC(=O)c1cnc2c(c1)OCCc1cc(-c3ccc[nH]c3=O)sc1-2, O=C(c1nc2c(s1)CCOc1cc(-c3cn[nH]c3)ccc1-2)N1CCCN(c2ccccn2)CC1, CN(C(=O)c1cc2c(s1)-c1ccc(C(=O)NCCS(C)(=O)=O)cc1OCC2)c1cc(C(=O)N2CC(F)(F)C2)ccc1Cl, CN1CC(C)(C)N(c2nc3c(s2)CCOc2cc(-c4cnn(CC(C)(C)O)c4)ccc2-3)C1=O, CC(C)n1ncnc1-c1nc2c(s1)CCOc1ccc(-c3cccnc3C(F)(F)F)cc1-2, CC(C)(O)Cn1cc(-c2ccc3c(c2)OCCc2sc(N4C(=O)OCC4(C)C)nc2-3)cn1, CNC(=O)C(C)(C)N1CC(c2ccc3c(c2)OCCc2sc(-c4ncnn4C(C)C)nc2-3)C1, O=C(c1nc2c(s1)CCOc1cc(-c3cn[nH]c3)ccc1-2)N1CCC[C@@H](CO)C1, COC[C@@H]1CCCN(C(=O)c2nc3c(s2)CCOc2cc(-c4cn[nH]c4)ccc2-3)C1, CC1(C)CCCN(C(=O)c2nc3c(s2)CCOc2cc(-c4cn[nH]c4)ccc2-3)C1, CC(C)n1c(-c2nc3c(s2)CCOc2cc(-c4cnn(CCO)c4)ccc2-3)nnc1C(F)(F)F, C[C@H](O)Cn1cc(-c2ccc3c(c2)OCCc2sc(-c4ncnn4CC(F)(F)F)nc2-3)cn1, CN(C(=O)c1cc2c(s1)-c1ccc(C(=O)NCCS(C)(=O)=O)cc1OCC2)c1cc(C(=O)N2CC(O)C2)ccc1Cl, Cc1ccc(-c2ccc3c(c2)-c2nc(-c4ncnn4C(C)C)sc2CCO3)cn1, CN1C(=O)N(c2nc3c(s2)CCOc2cc(-c4cnn(CC(C)(C)O)c4)ccc2-3)C(C)(C)C1=O, CC(O)c1ccc2c(c1)OCCc1sc(-c3ncnn3CC(F)(F)F)nc1-2 (stereo unspecified), Cc1c[nH]c(=O)c(-c2ccc3c(c2)-c2nc(-c4ncnn4C(C)C)sc2CCO3)c1, CC(C)n1ncnc1-c1nc2c(s1)CCOc1ccc(-c3ccc(=O)[nH]c3)cc1-2, O=C(NCC(F)F)c1ccc2c(c1)OCCc1sc(-c3ncnn3CC(F)(F)F)nc1-2, FC(F)(F)Cn1ncnc1-c1nc2c(s1)CCOc1cc(-c3ccc(NCCN4CCOCC4)nc3)ccc1-2, Cc1nc(-c2nc3c(s2)CCOc2cc(C4CN(CCO)C4)ccc2-3)n(C(C)C)n1, CN1CCN(C(=O)C2CCN(C(=O)c3nc4c(s3)CCOc3cc(-c5cn[nH]c5)ccc3-4)CC2)CC1, CC(C)n1ncnc1-c1nc2c(s1)CCOc1ccc(-c3ccc(N4CCOCC4)nc3)cc1-2, CC(O)C(=O)N1CC(n2ccnc2-c2nc3c(s2)CCOc2cc(-c4cnn(CC(C)(C)O)c4)ccc2-3)C1 (stereo unspecified), CC(O)CCc1ccc2c(n1)-c1sc(-c3ncnn3-c3ccc(F)cc3F)cc1CCO2 (stereo unspecified), CC(C)n1ncnc1-c1nc2c(s1)CCOc1cc(C3CN(C(=O)C(C)(C)O)C3)ccc1-2, C[C@@H]1CN(c2ccc3c(n2)-c2sc(-c4ncnn4-c4ccc(F)cc4F)cc2CCO3)C[C@H](C)N1C(=O)C(F)F, OCCn1cc(-c2ccc3c(c2)OCCc2sc(-c4ncnn4Cc4ccncc4)nc2-3)cn1, CC(C)c1nn(C)c(=O)n1-c1nc2c(s1)CCOc1cc(-c3cnn(CCO)c3)ccc1-2, Nc1ccc(-c2ccc3c(n2)-c2sc(-c4ncnn4-c4ccc(F)cc4F)cc2CCO3)cn1, O=C(c1nc2c(s1)CCOc1cc(-c3cn[nH]c3)ccc1-2)N1CCCCCCC1, CC(C)n1ncnc1-c1nc2c(s1)CCOc1cc(C3CN(C(C)(C)CO)C3)ccc1-2, CC(C)n1ncc(CO)c1-c1cc2c(s1)-c1nc(Cl)ccc1OCC2, Fc1ccc(-n2ncnc2-c2cc3c(s2)-c2nc(N4CC5CC4CN5)ccc2OCC3)c(F)c1 (stereo unspecified), CNc1ccc(-c2ccc3c(c2)-c2nc(C(=O)N(CCO)C(C)C)sc2CCO3)cn1, CC(C)n1c(-c2nc3c(s2)CCOc2cc(-c4cnn(CC5(C)COC5)c4)ccc2-3)n[nH]c1=O, CN(C[C@H](O)c1ccccc1)C(=O)c1nc2c(s1)CCOc1cc(-c3cn[nH]c3)ccc1-2, O=C(c1nc2c(s1)CCOc1cc(-c3cn[nH]c3)ccc1-2)N1CCC[C@@H](O)C1, CCN(CC)CCn1cc(-c2ccc3c(c2)OCCc2sc(-c4ncnn4CC(F)(F)F)nc2-3)cn1, Cc1nc(-c2nc3c(s2)CCOc2cc(C4CN(CC(=O)NC(C)C)C4)ccc2-3)n(C(C)C)n1, CC(C)N(CCO)C(=O)c1nc2c(s1)CCOc1ccc(-c3cnn(CC(C)(C)O)c3)cc1-2, Cc1nc(-c2nc3c(s2)CCOc2cc(CNS(C)(=O)=O)ccc2-3)n(C(C)C)n1, CC(=O)N1CCN(c2ccc3c(n2)-c2sc(-c4ncnn4-c4ccc(F)cc4F)cc2CCO3)CC1, O=C(c1nc2c(s1)CCOc1cc(-c3cn[nH]c3)ccc1-2)N1CCN(C(=O)C2CC2)CC1, CN(CCc1ccccc1)C(=O)c1nc2c(s1)CCOc1cc(-c3cn[nH]c3)ccc1-2, COCC(O)Cn1cc(-c2ccc3c(c2)OCCc2sc(-c4nc(C)nn4C(C)C)nc2-3)cn1 (stereo unspecified), CN(CCO)C(=O)c1ccc(Cl)c(N(C)C(=O)c2cc3c(s2)-c2ccc(C(=O)NCCS(C)(=O)=O)cc2OCC3)c1, O=C(c1nc2c(s1)CCOc1cc(-c3cn[nH]c3)ccc1-2)N1CCCN(c2ccncc2)CC1, Cc1cc(-c2ccc3c(n2)-c2sc(-c4ncnn4-c4ccc(F)cc4F)cc2CCO3)cnc1N1CCOCC1, NC(=O)Cn1cc(-c2ccc3c(c2)OCCc2sc(-c4ncnn4CC(F)(F)F)nc2-3)cn1, CN1CCN(C(=O)c2nc3c(s2)CCOc2cc(-c4cn[nH]c4)ccc2-3)CC1, COc1ccccc1-c1ccc2c(c1)-c1nc(-c3ncnn3C(C)C)sc1CCO2, N#CCCN(C(=O)c1nc2c(s1)CCOc1cc(-c3cn[nH]c3)ccc1-2)C1CCCC1, CN(C(=O)c1cc2c(s1)-c1ccc(C(=O)NCCS(C)(=O)=O)cc1OCC2)c1cc(C(=O)N2CCNCC2)ccc1Cl, O=S1(=O)CCC(n2cc(-c3ccc4c(c3)OCCc3sc(-c5ncnn5CC(F)(F)F)nc3-4)cn2)C1 (stereo unspecified), Cc1cc(-c2ccc3c(n2)-c2sc(-c4ncnn4-c4ccc(F)cc4F)cc2CCO3)cnc1N1CCN(C)CC1, CNC(=O)c1ccc2c(c1)OCCc1cc(C(=O)N(C)c3cc(C(=O)N(C)CCO)ccc3Cl)sc1-2, COc1ncccc1-c1ccc2c(c1)-c1nc(-c3ncnn3C(C)C)sc1CCO2, CN1CCC(N(C)C(=O)c2nc3c(s2)CCOc2cc(-c4cn[nH]c4)ccc2-3)C1 (stereo unspecified), COc1ccc(-c2ccc3c(c2)-c2nc(-c4ncnn4C(C)C)sc2CCO3)cn1, Cn1cc(-c2ccc3c(n2)-c2sc(-c4ncnn4-c4ccc(F)cc4F)cc2CCO3)cn1, O=C(c1nc2c(s1)CCOc1cc(-c3cn[nH]c3)ccc1-2)N(CCO)C1CCCCC1, CC(C)n1ncnc1-c1nc2c(s1)CCOc1ccc(C#N)cc1-2, Cc1nc(-c2nc3c(s2)CCOc2cc(-c4cncn4CCO)ccc2-3)n(C(C)C)n1
